Results from patent US11440940B2, “Polymyxin B component or salt thereof, and preparation and application thereof” (SPH NO.1 BIOCHEMICAL & PHARMACEUTICAL CO.,LTD., priority 2020, dated 2022).
In brackets after ≈: the same amount, converted by molar mass. Like-named read-outs stand apart in the source and are kept apart here. Where a SMILES comes first, the peptide text is derived from it. Bridges are numbered along the chain shown (N, C = ends). [ ]: non-standard residue; d: D form. The star is where a group is joined. aThr = C[C@H](O)[C@H](N)C(=O)O; X2 = CC[C@@H](C)CC/C=C/C(=O)*; X1 = CC[C@@H](C)CCCCC(=O)*; Dab = NCC[C@H](N)C(=O)O

Tests used:
[1] = test system: Acinetobacter baumannii ATCC19606; type: cell-based
Procedure: Minimal inhibitory concentrations (MIC) of the polymyxin B1 (PMB1) and the 2′,3′-dehydropolymyxin B1 against Acinetobacter baumannii were determined using a microdilution broth method as instructed by Clinical & Laboratory Standards Institute (CLSI). Specifically, Acinetobacter baumannii ATCC19606 (standard strain) was inoculated into a 96-well plate at a density of […], to which a PMB1 solution (as control) or a 2′,3′-dehydropolymyxin B1 solution was added to a series of final concentrations of 0.125, 0.25, 0.5, 1, 2, 4 and 8 mg/L. The 96-well plate was incubated at 35±2° C. for 18-24 h, and then observed for the turbidity in each test well, where the lowest concentration of PMB1 or 2′,3′-dehydropolymyxin B1 under which the system in the test well became clear was considered as the corresponding MIC.

[2] = test system: Pseudomona aeruginosa ATCC27853; type: cell-based
Procedure: Furthermore, the polymyxin B1 (PMB1) and the 2′,3′-dehydropolymyxin B1 were also determined for MIC against Pseudomona aeruginosa using the microdilution broth method as instructed by CLSI. Similarly, the Pseudomona aeruginosa ATCC27853 (standard strain) was inoculated into a 96-well plate at a density of 10^6 CFU/mL, to which a PMB1 solution (as control) or a 2′,3′-dehydropolymyxin B1 solution was added to a series of final concentrations of 0.125, 0.25, 0.5, 1, 2, 4 and 8 mg/L. The 96-well plate was incubated at […] for 18-24 h, and then observed for the turbidity in each test well, where the lowest concentration of PMB1 or 2′,3′-dehydropolymyxin B1 under which the system in the test well became clear was considered as the corresponding MIC.

MIC ([1]; ATCC19606) [µg/mL]	MIC ([2]; ATCC27853) [µg/mL]	SMILES	MIC ([1]; Acinetobacter baumannii ATCC19606 (standard strain), 96-well plate, 35±2° C., 18-24 h, turbidity) [µg/mL]	MIC ([2]; Pseudomona aeruginosa ATCC27853 (standard strain), 96-well plate, 18-24 h, turbidity) [µg/mL]
0.5 (≈ 0.416 µM)	1 (≈ 0.832 µM)	CC[C@@H](C)CC/C=C/C(=O)N[C@@H](CCN)C(=O)N[C@H](C(=O)N[C@@H](CCN)C(=O)N[C@H]1CCNC(=O)[C@H]([C@H](C)O)NC(=O)[C@H](CCN)NC(=O)[C@H](CCN)NC(=O)[C@H](CC(C)C)NC(=O)[C@@H](Cc2ccccc2)NC(=O)[C@H](CCN)NC1=O)[C@H](C)O [2′,3′-dehydropolymyxin B1] (X2-[Dab][aThr][Dab][Dab][Dab][dF]L[Dab][Dab][aThr]; lactam 4-C)	–	–
–	–	CC[C@@H](C)CCCCC(=O)N[C@@H](CCN)C(=O)N[C@H](C(=O)N[C@@H](CCN)C(=O)N[C@H]1CCNC(=O)[C@H]([C@H](C)O)NC(=O)[C@H](CCN)NC(=O)[C@H](CCN)NC(=O)[C@H](CC(C)C)NC(=O)[C@@H](Cc2ccccc2)NC(=O)[C@H](CCN)NC1=O)[C@H](C)O [Polymyxin B1, polymyxin B1] (X1-[Dab][aThr][Dab][Dab][Dab][dF]L[Dab][Dab][aThr]; lactam 4-C)	1 (≈ 0.831 µM)	1 (≈ 0.831 µM)
